Test results reported in US20240269304A1, “BCL-XL INHIBITOR ANTIBODY-DRUG CONJUGATES AND METHODS OF USE THEREOF” (Novartis AG, priority 2020, published 2024).
Like-named read-outs stand apart in the source and are kept apart here.

Tested on: H1650 cells
Experiment: CellTiterGlo (CTG) cell viability, 3D, 120 h, H1650 (Example 8)
Assay type: cell-based, human
Protocol: H1650 cells were cultivated in RPMI supplemented with 10% heat inactivated fetal bovine serum, penicillin (100 IU/ml), streptomycin (100 μg/ml) and L-glutamine (2 mM). Cell lines were cultured at 37° C. in a humidified atmosphere containing 5% 002. Cells were seeded in 96 microwell round bottom plates (96 microwell Low attachment plates , Costar reference 7007) and exposed to the payloads or ADCs for 120 h (serially diluted; 9 concentrations each, duplicates). Effects of payloads or ADCs on cell viability were assessed after 5 days of incubation at 37° C./5% CO2 by quantification of cellular ATP levels using CellTiterGlo at 75 μL reagent/well. All the conditions were tested in duplicates. Luminescence was quantified on a multipurpose plate reader. IC50S were calculated using standard four-parametric curve fitting. […] Each experiment was performed at least twice, with results being reproducible.

[1] = H1650 3D, experiment n1, read-out: H1650 3D CTG IC50 n1
[2] = H1650 3D, experiment n2, read-out: H1650 3D CTG IC50 n2
[3] = H1650 3D, mean of n1 and n2, read-out: H1650 3D CTG IC50 Mean of n1 and n2
[4] = Homo sapiens, NCI-H1650, H1650 3D, experiment n1, read-out: H1650 3D CTG IC50 n1
[5] = Homo sapiens, NCI-H1650, H1650 3D, experiment n2, read-out: H1650 3D CTG IC50 n2
[6] = Homo sapiens, NCI-H1650, H1650 3D, mean of n1 and n2, read-out: H1650 3D CTG IC50 Mean of n1 and n2

IC50 [4] [nM] | IC50 [5] [nM] | IC50 [6] [nM] | SMILES | IC50 [1] [nM] | IC50 [2] [nM] | IC50 [3] [nM]
 |  |  | Cc1cc(N(C)c2nc(C(=O)O)c(CCCOc3ccc(C#CC[N+](C)(C)Cc4ccc(NC(=O)[C@H](CCCNC(N)=O)NC(=O)[C@@H](NC(=O)CCOCCN5C(=O)CC(C)C5=O)C(C)C)cc4)cc3F)s2)nnc1Nc1nc2ccccc2s1 (stereo partly drawn) [Ab C - L9A-P2] | 4.2 | 7 | 5.6
 |  |  | Cc1c(Nc2nc3ccccc3s2)nnc2c1CCCN2c1nc(C(=O)[O-])c(CCCOc2ccc(C#CCN3CC[N+](C)(Cc4ccc(NC(=O)[C@H](CCCNC(N)=O)NC(=O)[C@@H](NC(=O)CCOCCN5C(=O)CC(C)C5=O)C(C)C)cc4)CC3)cc2F)s1 (stereo partly drawn) [Ab C - L9A-P10] | 0.3 | 0.5 | 0.4
 |  |  | Cc1cc(N(C)c2nc(C(=O)[O-])c(CCCOc3ccc(C#CC[N+](C)(C)Cc4ccc(NC(=O)[C@H](C)NC(=O)[C@@H](NC(=O)CCOCCN5C(=O)CC(C)C5=O)C(C)C)cc4CC[C@@H]4O[C@H](C(=O)O)[C@@H](O)[C@H](O)[C@H]4O)cc3F)s2)nnc1Nc1nc2ccccc2s1 (stereo partly drawn) [Ab C - L106A-P2] | 1 | 0.7 | 0.85
 |  |  | Cc1cc(N(C)c2nc(C(=O)[O-])c(CCCOc3ccc(C#CC[N+](C)(C)Cc4ccc(O[C@@H]5O[C@H](C(=O)O)[C@@H](O)[C@H](O)[C@H]5O)c(NC(=O)CCNC(=O)CCOCCN5C(=O)CC(C)C5=O)c4)cc3F)s2)nnc1Nc1nc2ccccc2s1 (stereo partly drawn) [Ab C - L108A-P2] | 2.1 | 0.97 | 1.54
4 | 28 | 16 | CNCC#Cc1ccc(OCCCc2sc(N3CCCc4c3nnc(Nc3nc5ccccc5s3)c4C)nc2C(=O)O)c(F)c1 [P3, 2-{3-[(1,3-Benzothiazol-2-yl)amino]-4-methyl-5H,6H,7H,8H-pyrido[2,3-c]pyridazin-8-yl}-5-(3-{2-fluoro-4-[3-(methylamino)prop-1-yn-1-yl]phenoxy}propyl)-1,3-thiazole-4-carboxylic acid] |  |  | 
0.7 | 1.2 | 0.95 | Cc1cc(N(C)c2nc(C(=O)O)c(CCCOc3ccc(C#CC(C)N(C)C)cc3F)s2)nnc1Nc1nc2ccccc2s1 (stereo not drawn) [P11, 2-[[6-(1,3-Benzothiazol-2-ylamino)-5-methyl-pyridazin-3-yl]-methyl-amino]-5-[3-[4-[3-(dimethylamino)but-1-ynyl]-2-fluoro-phenoxy]propyl]thiazole-4-carboxylic acid] |  |  | 
0.95 | 2 | 1.48 | Cc1c(Nc2nc3ccccc3s2)nnc2c1CCCN2c1nc(C(=O)O)c(CCCOc2ccc(C#CCNCCN(C)C)cc2F)s1 [P12, 2-[3-(1,3-Benzothiazol-2-ylamino)-4-methyl-6,7-dihydro-5H-pyrido[2,3-c]pyridazin-8-yl]-5-[3-[4-[3-[2-(dimethylamino)ethylamino]prop-1-ynyl]-2-fluoro-phenoxy]propyl]thiazole-4-carboxylic acid] |  |  | 
1.9 | 5.4 | 3.65 | CCN(CC)CC#Cc1ccc(OCCCc2sc(N3CCCc4c3nnc(Nc3nc5ccccc5s3)c4C)nc2C(=O)O)c(F)c1 [P14, 2-[3-(1,3-Benzothiazol-2-ylamino)-4-methyl-6,7-dihydro-5H-pyrido[2,3-c]pyridazin-8-yl]-5-[3-[4-[3-(diethylamino)prop-1-ynyl]-2-fluoro-phenoxy]propyl]thiazole-4-carboxylic acid] |  |  | 
0.98 | 1.2 | 1.09 | Cc1c(Nc2nc3ccccc3s2)nnc2c1CCCN2c1nc(C(=O)O)c(CCCOc2ccc(C#CCN3CCC(F)(F)CC3)cc2F)s1 [P15, 2-{3-[(1,3-Benzothiazol-2-yl)amino]-4-methyl-5H,6H,7H,8H-pyrido[2,3-c]pyridazin-8-yl}-5-(3-{4-[3-(4,4-difluoropiperidin-1-yl)prop-1-yn-1-yl]-2-fluorophenoxy}propyl)-1,3-thiazole-4-carboxylic acid] |  |  | 
